Data reported in PMC11638278, “Ascorbate: a forgotten component in the cytotoxicity of Cu(II) ATCUN peptide complexes” (Journal of Biological Inorganic Chemistry, 2024).

System: AGS cells (gastric adenocarcinoma)
Test: MTT cell viability assay on AGS cells
Format: cell-based
Settings: AscH− 100 µM alone (negative control), 48 h
Experimental: The complexes 1–3, Cu-GGH, CuCl2 and the peptides a-c, GGH alone were tested on three different cancer cell lines towards their cytotoxic activity: HeLa cells (cervical adenocarcinoma), AGS and NCI-N87 cells (both gastric adenocarcinoma). The cells were grown and treated with compounds in RPMI Medium 1640 (1×) supplemented with 10% fetal calf serum in a humidified incubator with 5% CO2 at 37 °C. MTT cell viability assays were carried out at two concentrations (100 and 250 µM) at least in duplicate (in AGS cells additionally in two independent experiments). The Annexin V-FITC apoptosis assay was carried out at a compound concentration of 500 µM in duplicate in two independent experiments.
For the MTT cell viability assay (Sigma Aldrich), cells were seeded at 10 000 (HeLa and AGS) and 20 000 (NCI-N87) cells/well in 96-well plates and left to settle for 24 h. […] Quantification of the formazan was ensured by a Spectramax M5 (Molecular Devices) microplate reader at an absorbance of 470 nm to determine the percentage of cell-growth inhibition of each sample (with compound) relative to a negative control (no compound). […]

O=C1O[C@H]([C@@H](O)CO)C(O)=C1O [AscH^−, sodium ascorbate]
cytotoxicity of the additive alone: does not show significant cytotoxicity
